Test results as given in PubChem BioAssay AID1963970 (Molecular Pharmacology Branch, DTP, NCI, 2024).
Blank lines part the entries; values can stand above or below the compound they belong to.

System: 931267-113-T-J1-PDC multicell spheroid viability
Test: Anticancer human tumor 931267-113-T-J1-PDC patient-derived colon adenocarcinoma cell line growth inhibition [PI3K]
Details: for viability, T/C: stronger effect = lower value
Procedure, shortened: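 Multi-cell spheroids combine tumor cells with HUVEC and human MSCs, treated with targeted agents alone or with inavolisib, alpelisib, duvelisib or copanlisib. Concentrations fall in half-log steps from at or near clinical Cmax, or from 10 microM where Cmax is unknown; viability read-out.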

[1] = curve of first compound, second compound 0.0316 µM
[2] = curve of first compound, second compound 0.1 µM
[3] = curve of first compound, second compound 0.316 µM
[4] = curve of first compound, second compound 1 µM
[5] = curve of first compound, second compound 3.16 µM
[6] = curve of first compound, second compound 10 µM
[7] = second compound 0.0316 µM, first compound 0.0316 µM
[8] = second compound 0.0316 µM, first compound 0.1 µM
[9] = second compound 0.0316 µM, first compound 0.316 µM
[10] = second compound 0.0316 µM, first compound 1 µM
[11] = second compound 0.0316 µM, first compound 3.16 µM
[12] = second compound 0.0316 µM, first compound 10 µM
[13] = second compound 0.1 µM, first compound 0.0316 µM
[14] = second compound 0.1 µM, first compound 0.1 µM
[15] = second compound 0.1 µM, first compound 0.316 µM
[16] = second compound 0.1 µM, first compound 1 µM
[17] = second compound 0.1 µM, first compound 3.16 µM
[18] = second compound 0.1 µM, first compound 10 µM
[19] = second compound 0.316 µM, first compound 0.0316 µM
[20] = second compound 0.316 µM, first compound 0.1 µM
[21] = second compound 0.316 µM, first compound 0.316 µM
[22] = second compound 0.316 µM, first compound 1 µM
[23] = second compound 0.316 µM, first compound 3.16 µM
[24] = second compound 0.316 µM, first compound 10 µM
[25] = second compound 1 µM, first compound 0.0316 µM
[26] = second compound 1 µM, first compound 0.1 µM
[27] = second compound 1 µM, first compound 0.316 µM
[28] = second compound 1 µM, first compound 1 µM
[29] = second compound 1 µM, first compound 3.16 µM
[30] = second compound 1 µM, first compound 10 µM
[31] = second compound 3.16 µM, first compound 0.0316 µM
[32] = second compound 3.16 µM, first compound 0.1 µM
[33] = second compound 3.16 µM, first compound 0.316 µM
[34] = second compound 3.16 µM, first compound 1 µM
[35] = second compound 3.16 µM, first compound 3.16 µM
[36] = second compound 3.16 µM, first compound 10 µM
[37] = second compound 10 µM, first compound 0.0316 µM
[38] = second compound 10 µM, first compound 0.1 µM
[39] = second compound 10 µM, first compound 0.316 µM
[40] = second compound 10 µM, first compound 1 µM
[41] = second compound 10 µM, first compound 3.16 µM
[42] = second compound 10 µM, first compound 10 µM
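Note: viability read 7 days after compound addition.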

IC50 [1]: 7.95 µM
IC50 [2]: 7.53 µM
IC50 [3]: 7.72 µM
IC50 [4]: 6.96 µM
IC50 [5]: 5.22 µM
IC50 [6]: 3.03 µM
SMILES: Cn1nccc1Nc1nccc(-c2ccn(C(CO)c3ccc(Cl)c(F)c3)c(=O)c2)n1 (stereo not drawn) + CC(Nc1ncnc2nc[nH]c12)c1cc2cccc(Cl)c2c(=O)n1-c1ccccc1
viability, T/C [7]: 105%
viability, T/C [8]: 103%
viability, T/C [9]: 98.9%
viability, T/C [10]: 90.6%
viability, T/C [11]: 65.7%
viability, T/C [12]: 46.1%
viability, T/C [13]: 111%
viability, T/C [14]: 109%
viability, T/C [15]: 92.7%
viability, T/C [16]: 87.5%
viability, T/C [17]: 64.6%
viability, T/C [18]: 45%
viability, T/C [19]: 107%
viability, T/C [20]: 113%
viability, T/C [21]: 100%
viability, T/C [22]: 78.1%
viability, T/C [23]: 76.4%
viability, T/C [24]: 42.7%
viability, T/C [25]: 114%
viability, T/C [26]: 109%
viability, T/C [27]: 92.6%
viability, T/C [28]: 86.2%
viability, T/C [29]: 70.3%
viability, T/C [30]: 40.4%
viability, T/C [31]: 109%
viability, T/C [32]: 94.3%
viability, T/C [33]: 87.5%
viability, T/C [34]: 78%
viability, T/C [35]: 63.3%
viability, T/C [36]: 35.1%
viability, T/C [37]: 88.2%
viability, T/C [38]: 86.3%
viability, T/C [39]: 79.6%
viability, T/C [40]: 77.4%
viability, T/C [41]: 48.4%
viability, T/C [42]: 27.4%

IC50 [1]: > 10 µM
IC50 [2]: > 10 µM
IC50 [3]: > 10 µM
IC50 [4]: > 10 µM
IC50 [5]: > 10 µM
IC50 [6]: > 10 µM
SMILES: C[C@@H](NC(=O)c1ncnc(N)c1Cl)c1ncc(C(=O)Nc2cc(C(F)(F)F)c(Cl)cn2)s1 + CC(Nc1ncnc2nc[nH]c12)c1cc2cccc(Cl)c2c(=O)n1-c1ccccc1
viability, T/C [7]: 107%
viability, T/C [8]: 117%
viability, T/C [9]: 117%
viability, T/C [10]: 104%
viability, T/C [11]: 92.7%
viability, T/C [12]: 74.5%
viability, T/C [13]: 121%
viability, T/C [14]: 107%
viability, T/C [15]: 110%
viability, T/C [16]: 111%
viability, T/C [17]: 98.9%
viability, T/C [18]: 78.1%
viability, T/C [19]: 113%
viability, T/C [20]: 116%
viability, T/C [21]: 104%
viability, T/C [22]: 110%
viability, T/C [23]: 103%
viability, T/C [24]: 75.1%
viability, T/C [25]: 115%
viability, T/C [26]: 114%
viability, T/C [27]: 105%
viability, T/C [28]: 110%
viability, T/C [29]: 107%
viability, T/C [30]: 69.4%
viability, T/C [31]: 98.5%
viability, T/C [32]: 108%
viability, T/C [33]: 103%
viability, T/C [34]: 95.8%
viability, T/C [35]: 98.2%
viability, T/C [36]: 66.5%
viability, T/C [37]: 96.4%
viability, T/C [38]: 107%
viability, T/C [39]: 99.8%
viability, T/C [40]: 106%
viability, T/C [41]: 86%
viability, T/C [42]: 53.2%

IC50 (compound alone, run of 05/09/2023): 375 nM [middle of 8 runs]
SMILES: COc1c(OCCCN2CCOCC2)ccc2c3n(c(=NC(=O)c4cnc(N)nc4)nc12)CCN3
viability, T/C (compound 0.00316 µM): 101% [middle of 8 runs]
viability, T/C (compound 0.01 µM): 95.7% [middle of 8 runs]
viability, T/C (compound 0.0316 µM): 80.6% [middle of 8 runs]
viability, T/C (compound 0.1 µM): 67.6% [middle of 8 runs]
viability, T/C (compound 0.316 µM): 51% [middle of 8 runs]
viability, T/C (compound 1 µM): 39.6% [middle of 8 runs]

IC50 [1]: 0.123 µM
IC50 [2]: 0.133 µM
IC50 [3]: 0.117 µM
IC50 [4]: 0.107 µM
IC50 [5]: 0.0967 µM
IC50 [6]: 0.0616 µM
SMILES: Cn1cnc2c(F)c(Nc3ccc(Br)cc3Cl)c(C(=O)NOCCO)cc21 + CC(Nc1ncnc2nc[nH]c12)c1cc2cccc(Cl)c2c(=O)n1-c1ccccc1
viability, T/C (second compound 0.0316 µM, first compound 0.00949 µM): 84%
viability, T/C (second compound 0.0316 µM, first compound 0.03 µM): 71.9%
viability, T/C (second compound 0.0316 µM, first compound 0.0949 µM): 51.7%
viability, T/C (second compound 0.0316 µM, first compound 0.3 µM): 38.4%
viability, T/C (second compound 0.0316 µM, first compound 0.949 µM): 23%
viability, T/C (second compound 0.0316 µM, first compound 3 µM): 12.8%
viability, T/C (second compound 0.1 µM, first compound 0.00949 µM): 89.1%
viability, T/C (second compound 0.1 µM, first compound 0.03 µM): 80.1%
viability, T/C (second compound 0.1 µM, first compound 0.0949 µM): 55.4%
viability, T/C (second compound 0.1 µM, first compound 0.3 µM): 33.1%
viability, T/C (second compound 0.1 µM, first compound 0.949 µM): 25.1%
viability, T/C (second compound 0.1 µM, first compound 3 µM): 13.6%
viability, T/C (second compound 0.316 µM, first compound 0.00949 µM): 92.1%
viability, T/C (second compound 0.316 µM, first compound 0.03 µM): 77.9%
viability, T/C (second compound 0.316 µM, first compound 0.0949 µM): 51.8%
viability, T/C (second compound 0.316 µM, first compound 0.3 µM): 33.4%
viability, T/C (second compound 0.316 µM, first compound 0.949 µM): 23.1%
viability, T/C (second compound 0.316 µM, first compound 3 µM): 12.9%
viability, T/C (second compound 1 µM, first compound 0.00949 µM): 88.8%
viability, T/C (second compound 1 µM, first compound 0.03 µM): 72%
viability, T/C (second compound 1 µM, first compound 0.0949 µM): 51.6%
viability, T/C (second compound 1 µM, first compound 0.3 µM): 32.3%
viability, T/C (second compound 1 µM, first compound 0.949 µM): 24.4%
viability, T/C (second compound 1 µM, first compound 3 µM): 10.6%
viability, T/C (second compound 3.16 µM, first compound 0.00949 µM): 74%
viability, T/C (second compound 3.16 µM, first compound 0.03 µM): 69.2%
viability, T/C (second compound 3.16 µM, first compound 0.0949 µM): 48.1%
viability, T/C (second compound 3.16 µM, first compound 0.3 µM): 31.9%
viability, T/C (second compound 3.16 µM, first compound 0.949 µM): 21.4%
viability, T/C (second compound 3.16 µM, first compound 3 µM): 11%
viability, T/C (second compound 10 µM, first compound 0.00949 µM): 79.2%
viability, T/C (second compound 10 µM, first compound 0.03 µM): 62.8%
viability, T/C (second compound 10 µM, first compound 0.0949 µM): 41%
viability, T/C (second compound 10 µM, first compound 0.3 µM): 29%
viability, T/C (second compound 10 µM, first compound 0.949 µM): 15.2%
viability, T/C (second compound 10 µM, first compound 3 µM): 7.35%
